Read-outs that look alike come from different tables or passages of the source.

Here are results for one molecule from article PMC9114338 (Scientific Reports, 2022).

The nature of data set [1]: Compartmental PK model, IV and SQ co-modeling. It is filed as in vivo, C57BL/6 J mice. The settings on record: mouse. An excerpt:
The results of the simultaneous model (co-model) are summarized in Table 2, and the parameters were used in subsequent simulation exercises (vide infra).
The change in amount over time within each compartment was related to the difference in the input into the compartment (e.g., the Dose × F × Ka term into compartment C1) and the output from the compartment (e.g., the Concentration × Kout term for compartment Ccell). Two compartments –plus a dosing compartment– best described TFV plasma PKs.
A third compartment was used to model the PKs of PBMC TFV-DP concentrations. Intracellular PKs of TFV-DP were linked to the plasma TFV concentration via saturable uptake (Vmax and Km) with maximum velocity of uptake and first order elimination kinetics, Kout. […] C1 is the central compartment, representing the TFV plasma concentration in the body. The second compartment C2 represents the peripheral tissues, and the cellular compartment Ccell represents the concentrations of TFV-DP in PBMCs. Parameters CLp and Vp describe clearance and volume of the peripheral compartment (C2) and Ka and CL are the rates of TFV uptake and clearance into/out of the central compartment (C1), respectively. […] The physiological PBMC volume was assumed to be 7.55 × 10^–7 L/10^6 cells, to remain consistent with Duwal et al.[44] for the model analysis, while all other parameters were estimated in the model. The ordinary differential equations (Eqs. 1–3) used in the final model are presented below:1 d/dtC1t=F·Ka·Dt/V-C1t·CL/V-CLp/V·C1t+CLp/Vp·C2t 2 d/dtC2t=[…] 3 d/dtCcellt=Vmax·C1t/Km-Ccellt·Kout
Compartmental analyses were performed in Phoenix software (version 8.3, Certara, Princeton, NJ) using a published, simple, structural PK model describing the TFV kinetics. IV and SQ data were modeled simultaneously. Due to the destructive nature of the blood sampling, data were modeled using a naïve-pooled algorithm, without inter-animal variability. The resulting systemic parameters, along with the implant in vivo release rates on a per animal basis, were used to co-model (predict) concentration data in mice following during implant dosing.

Data set [2] is described as follows: MALDI imaging mass spectrometry of dermal tissues adjacent to the implant. The class given is in vivo, C57BL/6 J mice. The protocol:
The used implants, the surrounding capsule, and the encasing dermal tissue were removed as a block in accordance with ISO 10993-6 guidelines, processed and stored, as described elsewhere. Briefly, the capsule was cut longitudinally and rolled open, taking care not to disrupt the architecture of the tissue or to damage the used implant. A portion of the tissue specimen was placed into 4% paraformaldehyde solution (phosphate-buffered at pH 7.2), and stored at 4 °C, for histopathology and two other portions were flash-frozen in liquid nitrogen for drug concentration analysis as well as for drug spatial distribution analysis by MALDI-IMS (vide infra).
Frozen mouse tissue specimens were shipped to Vanderbilt University on dry ice and stored at − 80 °C prior to use. Tissues were removed from the − 80 °C freezer and placed in a − 20 °C cryostat (CM 1900, Leica Biosystems, Buffalo Grove, IL) and sectioned. Tissue samples that had been prepared via removal of the used implant were affixed to the cryostat chuck with optimal cutting temperature (OCT) polymer and were cut on the cryostat into 12 µm thick sections for imaging mass spectrometry and H&E staining.
Tissue samples that still contained the implant in place were embedded in OCT prior to sectioning. In order to minimize the artifactual signal from the TAF powder after sectioning (the act of the cryostat blade cutting through an intact implant distributed residual TAF powder that still remained in the used implant onto the surrounding tissue section), house vacuum was used to remove visible TAF powder, followed by lightly running nitrogen gas over the plate to remove any additional loose powder from the slide.
The tissue sections were thaw-mounted onto indium-tin oxide coated glass slides for imaging (Delta Technologies, Ltd, Loveland, CO). The tissue sections were left to dry for at least 15 min in a desktop vacuum desiccator prior to matrix application. […] For 9AA, four passes were applied at 85 °C in a crisscross pattern, with a 700 mm min^-1 stage velocity, 2 mm track spacing, and 0.15 mL min^-1 flow rate. For DHB the same method was used, except eight passes were applied and the stage velocity was 1300 mm min^-1.
Flash-frozen dermal tissue samples collected adjacent to the TAF implants and sectioned were analyzed with a linear ion trap mass spectrometer equipped with a MALDI source and a nitrogen laser (LTQ XL, Thermo Scientific, Waltham, MA). The structures of compounds of interest are shown in Scheme 1. Targeted MS/MS methods were optimized for each compound using authentic samples as standards, with the final parameters shown in Appendix A under Supplementary Information. Pseudo-selected reaction monitoring mode was used for imaging by isolating precursor ions with a 1 Da window, fragmenting them, and acquiring full product ion mass spectra at each pixel. TFV, TFV-MP, and TFV-DP were analyzed in negative ion mode, while TAF, Metabolite X, and Metabolite Y were analyzed in positive ion mode. In most cases, after imaging, the matrix was removed and the tissue section that had been imaged was H&E stained for better image registration with tissue morphology. Standard images were acquired at either 50 or 100 µm spatial resolution. Reconstructed ion images were generated in ImageQuest software (Thermo Scientific, Waltham, MA) by plotting the intensity of the diagnostic fragment ion or ions as a function of location across the tissue surface.

As for `C[C@H](Cn1cnc2c(N)ncnc21)OCP(=O)(O)O` [TFV, tenofovir], in data set [1] (C57BL/6 J, plasma, other: intravenous and subcutaneous injection, co-modelled, 0.5 mg, IV and SQ co-modeling, read-out: CL, total body clearance (converted)), the clearance was 4.48 mL/min. In addition, the half-life is 53 h in data set [1] (C57BL/6 J, plasma, other: intravenous and subcutaneous injection, co-modelled, 0.5 mg, IV and SQ co-modeling, read-out: Elimination half-life t1/2, plasma TFV (converted)); 52.8 h in data set [1] (C57BL/6 J, plasma, other: intravenous and subcutaneous injection, co-modelled, 0.5 mg, IV and SQ co-modeling, read-out: t1/2, elimination half-life, plasma TFV (converted)). Also, in data set [1] (C57BL/6 J, plasma, other: intravenous and subcutaneous injection, co-modelled, 0.5 mg, IV and SQ co-modeling, read-out: V, volume of distribution of the central compartment), the Vd stood at 4.59 L. Moreover, the “Vmax/Km as share of the non-saturable clearance” value in data set [1] (in vivo) turned out to be 2%. For the same molecule, the “Detection by MALDI-IMS in dermal tissue samples during implant TAF delivery” value in data set [2] (all medicated specimens) was “detected”. Besides, the “Spatial distribution in dermal tissue sections (MALDI-IMS)” value in data set [2] (high-releasing (0.58 mg d^-1) implants, D3–D28) is “distributed homogeneously throughout the samples”. The “MALDI-IMS signal and localization with implant in situ” value in data set [2] (low-releasing (0.23 mg d^-1) implants, Day 14, 100 µm resolution) was “most abundant signals”.
